Earlier results on three compounds are cited in patent publication US20220288358A1, “Drug-Coated Balloon Controllable In Drug Metabolism And Preparation Method Therefor” (Shanghai HeartCare Medical Technology Corporation Limited, priority 2019, published 2022).

“Also recorded” adds a separate entry of the source.

FKBP12 protein, sequence (P62942 whole entry, species assumed): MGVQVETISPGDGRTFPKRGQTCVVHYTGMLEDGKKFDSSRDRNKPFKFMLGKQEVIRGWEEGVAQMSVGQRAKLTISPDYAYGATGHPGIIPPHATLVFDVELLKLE

The data set addresses FKBP12 protein (Homo sapiens, UniProt P62942). Conditions: rank order from strong to weak; stated without data.
`CCC(C)(C)C(=O)C(=O)N1CCC[C@H]1C(=O)OCCCc1cccnc1` [drug a, 3-pyridin-3-ylpropyl-(2 S)-1-(3,3-dimethyl-2-oxo-pentanoyl)-pyrrolidine-2-carboxylate]: the “ability to bind FKBP12 protein” value was “from strong to weak is drug c, drug b, and drug a”.

For the compound `CCOC(=O)[C@H](CC(C)C)NC(=O)[C@@H]1CSCCN1S(=O)(=O)c1ccc(C)cc1` [drug b, (3R)-4-(p-Toluenesulfonyl)-1,4-thiazane-3-carboxylicacid-L-leucine ethyl ester], the “ability to bind FKBP12 protein” value is “from strong to weak is drug c, drug b, and drug a”.

Turning to `Cc1ccc(S(=O)(=O)N2CCSC[C@H]2C(=O)N[C@@H](Cc2ccccc2)C(=O)OCc2ccccc2)cc1` [drug c, (3R)-4-(p-Toluenesulfonyl)-1,4-thiazane-3-carboxylic acid-L-phenylalanine benzyl ester], the “ability to bind FKBP12 protein” value is “stronger than that of drug a; also recorded: from strong to weak is drug c, drug b, and drug a”.
